According to ChEMBL document CHEMBL5543142, “Discovery of YFJ-36: Design, Synthesis, and Antibacterial Activities of Catechol-Conjugated β-Lactams against Gram-Negative Bacteria” (J Med Chem, 2024):
In brackets after ≈: the same amount, converted by molar mass.

How the values were obtained:
Type in all cases: functional
Pseudomonas aeruginosa [1] = assay: Antibacterial activity against Pseudomonas aeruginosa ATCC 27853 assessed as inhibition of bacterial growth incubated for 18 to 20 hrs by two fold serial dilution assay; conditions: time 18-20 hrs
Escherichia coli [2] = assay: Antibacterial activity against ESBL-producing multidrug-resistant Escherichia coli clinical isolate 14-1 assessed as inhibition of bacterial growth incubated for 18 to 20 hrs by two fold serial dilution assay; conditions: time 18-20 hrs
Escherichia coli [3] = assay: Antibacterial activity against ESBL-producing multidrug-resistant Escherichia coli clinical isolate 14-2 assessed as inhibition of bacterial growth incubated for 18 to 20 hrs by two fold serial dilution assay; conditions: time 18-20 hrs
Escherichia coli [4] = assay: Antibacterial activity against ESBL-producing multidrug-resistant Escherichia coli clinical isolate 14-4 assessed as inhibition of bacterial growth incubated for 18 to 20 hrs by two fold serial dilution assay; conditions: time 18-20 hrs
Acinetobacter baumannii [5] = assay: Antibacterial activity against OXA-23 producing multidrug-resistant Acinetobacter baumannii clinical isolate 15-3 assessed as inhibition of bacterial growth incubated for 18 to 20 hrs by two fold serial dilution assay; conditions: time 18-20 hrs
Acinetobacter baumannii [6] = assay: Antibacterial activity against OXA-23 producing multidrug-resistant Acinetobacter baumannii clinical isolate 15-4 assessed as inhibition of bacterial growth incubated for 18 to 20 hrs by two fold serial dilution assay; conditions: time 18-20 hrs
Acinetobacter baumannii [7] = assay: Antibacterial activity against OXA-23 producing multidrug-resistant Acinetobacter baumannii clinical isolate 15-5 assessed as inhibition of bacterial growth incubated for 18 to 20 hrs by two fold serial dilution assay; conditions: time 18-20 hrs
Klebsiella pneumoniae [8] = assay: Antibacterial activity against KPC-2 producing multidrug-resistant Klebsiella pneumoniae clinical isolate 15-1 assessed as inhibition of bacterial growth incubated for 18 to 20 hrs by two fold serial dilution assay; conditions: time 18-20 hrs
Klebsiella pneumoniae [9] = assay: Antibacterial activity against KPC-2 producing multidrug-resistant Klebsiella pneumoniae clinical isolate 15-2 assessed as inhibition of bacterial growth incubated for 18 to 20 hrs by two fold serial dilution assay; conditions: time 18-20 hrs
Klebsiella pneumoniae [10] = assay: Antibacterial activity against KPC-2 producing multidrug-resistant Klebsiella pneumoniae clinical isolate 15-5 assessed as inhibition of bacterial growth incubated for 18 to 20 hrs by two fold serial dilution assay; conditions: time 18-20 hrs
Pseudomonas aeruginosa [11] = assay: Antibacterial activity against IMP-4 producing multidrug-resistant Pseudomonas aeruginosa clinical isolate 15-1 assessed as inhibition of bacterial growth incubated for 18 to 20 hrs by two fold serial dilution assay; conditions: time 18-20 hrs
Pseudomonas aeruginosa [12] = assay: Antibacterial activity against IMP-4 producing multidrug-resistant Pseudomonas aeruginosa clinical isolate 15-5 assessed as inhibition of bacterial growth incubated for 18 to 20 hrs by two fold serial dilution assay; conditions: time 18-20 hrs
Escherichia coli [13] = assay: Antibacterial activity against Escherichia coli ATCC35218 assessed as inhibition of bacterial growth incubated for 18 to 20 hrs by two fold serial dilution assay; conditions: time 18-20 hrs
Pseudomonas aeruginosa [14] = assay: Antibacterial activity against IMP-4 producing multidrug-resistant Pseudomonas aeruginosa clinical isolate 17-13 assessed as inhibition of bacterial growth incubated for 18 to 20 hrs by two fold serial dilution assay; conditions: time 18-20 hrs
Pseudomonas aeruginosa [15] = assay: Antibacterial activity against IMP-4 producing multidrug-resistant Pseudomonas aeruginosa clinical isolate 17-1 assessed as inhibition of bacterial growth incubated for 18 to 20 hrs by two fold serial dilution assay; conditions: time 18-20 hrs
Pseudomonas aeruginosa [16] = assay: Antibacterial activity against IMP-4 producing multidrug-resistant Pseudomonas aeruginosa clinical isolate 19-17 assessed as inhibition of bacterial growth incubated for 18 to 20 hrs by two fold serial dilution assay; conditions: time 18-20 hrs
Acinetobacter baumannii [17] = assay: Antibacterial activity against OXA-23 producing multidrug-resistant Acinetobacter baumannii clinical isolate 17-2 assessed as inhibition of bacterial growth incubated for 18 to 20 hrs by two fold serial dilution assay; conditions: time 18-20 hrs
Pseudomonas aeruginosa [18] = assay: Antibacterial activity against IMP-4 producing multidrug-resistant Pseudomonas aeruginosa clinical isolate 19-5 assessed as inhibition of bacterial growth incubated for 18 to 20 hrs by two fold serial dilution assay; conditions: time 18-20 hrs
Pseudomonas aeruginosa [19] = assay: Antibacterial activity against IMP-4 producing multidrug-resistant Pseudomonas aeruginosa clinical isolate 19-1 assessed as inhibition of bacterial growth incubated for 18 to 20 hrs by two fold serial dilution assay; conditions: time 18-20 hrs
Acinetobacter baumannii [20] = assay: Antibacterial activity against OXA-23 producing multidrug-resistant Acinetobacter baumannii clinical isolate 17-5 assessed as inhibition of bacterial growth incubated for 18 to 20 hrs by two fold serial dilution assay; conditions: time 18-20 hrs
Acinetobacter baumannii [21] = assay: Antibacterial activity against OXA-23 producing multidrug-resistant Acinetobacter baumannii clinical isolate 17-6 assessed as inhibition of bacterial growth incubated for 18 to 20 hrs by two fold serial dilution assay; conditions: time 18-20 hrs
Acinetobacter baumannii [22] = assay: Antibacterial activity against OXA-23 producing multidrug-resistant Acinetobacter baumannii clinical isolate 17-7 assessed as inhibition of bacterial growth incubated for 18 to 20 hrs by two fold serial dilution assay; conditions: time 18-20 hrs
Acinetobacter baumannii [23] = assay: Antibacterial activity against OXA-23 producing multidrug-resistant Acinetobacter baumannii clinical isolate 17-8 assessed as inhibition of bacterial growth incubated for 18 to 20 hrs by two fold serial dilution assay; conditions: time 18-20 hrs
Klebsiella pneumoniae [24] = assay: Antibacterial activity against KPC-2 producing multidrug-resistant Klebsiella pneumoniae clinical isolate 15-3 assessed as inhibition of bacterial growth incubated for 18 to 20 hrs by two fold serial dilution assay; conditions: time 18-20 hrs
Escherichia coli [25] = assay: Antibacterial activity against Escherichia coli NCTC-13353 assessed as inhibition of bacterial growth incubated for 18 to 20 hrs in presence of CAMHB medium by two fold serial dilution assay; conditions: time 18-20 hrs
Escherichia coli [26] = assay: Antibacterial activity against Escherichia coli ATCC-35218 infected in ICR mouse assessed as inhibition of bacterial growth at iv after 1 and 5 hour of post-infection measured after 7 days; conditions: ATCC-35218, 168 h, time 7 day
Acinetobacter baumannii [27] = assay: Antibacterial activity against multidrug-resistant Acinetobacter baumannii BM-2023-D2-010 infected in ICR mouse assessed as inhibition of bacterial growth at iv after 1 and 5 hour of post-infection measured after 7 days; conditions: BM-2023-D2-010, 168 h, time 7 day
Acinetobacter baumannii [28] = assay: Antibacterial activity against multidrug-resistant Acinetobacter baumannii BM-2023-D2-010 infected in ICR mouse assessed as survival rate at 40 mg/kg,iv after 1 and 5 hour of post-infection measured after 7 days relative to control; conditions: time 7 day

Q: Which MIC (Pseudomonas aeruginosa [1]) does the source give for `C[C@@H](O)[C@H]1C(=O)N2C(C(=O)O)=C(S[C@@H]3CN[C@H](C(=O)N(C)C)C3)[C@H](C)[C@H]12` [MEROPENEM] here?
A: Its MIC is 1 µg/mL (≈ 2.61 µM).

Q: And the MIC (Escherichia coli [2])?
A: Its MIC is 0.125 µg/mL (≈ 0.326 µM).

Q: And the MIC (Escherichia coli [3])?
A: The MIC was 2 µg/mL (≈ 5.22 µM).

Q: And the MIC (Escherichia coli [4])?
A: Its MIC is 4 µg/mL (≈ 10.4 µM).

Q: What about the MIC (Acinetobacter baumannii [5]) of the same compound?
A: Its MIC is 32 µg/mL (≈ 83.4 µM).

Q: What about the MIC (Acinetobacter baumannii [6]) of the same compound?
A: Its MIC is 32 µg/mL (≈ 83.4 µM).

Q: What about the MIC (Acinetobacter baumannii [7]) of the same compound?
A: The MIC was 32 µg/mL (≈ 83.4 µM).

Q: And the MIC (Klebsiella pneumoniae [8])?
A: The MIC was greater than 64 µg/mL.

Q: What about the MIC (Klebsiella pneumoniae [9]) of the same compound?
A: Its MIC is greater than 64 µg/mL.

Q: And the MIC (Klebsiella pneumoniae [10])?
A: Its MIC is greater than 64 µg/mL.

Q: What about the MIC (Pseudomonas aeruginosa [11]) of the same compound?
A: The MIC was 32 µg/mL (≈ 83.4 µM).

Q: What about the MIC (Pseudomonas aeruginosa [12]) of the same compound?
A: Its MIC is 16 µg/mL (≈ 41.7 µM).

Q: What about the MIC (Escherichia coli [13]) of the same compound?
A: The MIC was 0.06 µg/mL (≈ 0.156 µM).

Q: What about the MIC (Pseudomonas aeruginosa [14]) of the same compound?
A: The MIC was 16 µg/mL (≈ 41.7 µM).

Q: And the MIC (Pseudomonas aeruginosa [15])?
A: Its MIC is 4 µg/mL (≈ 10.4 µM).

Q: And the MIC (Pseudomonas aeruginosa [16])?
A: Its MIC is 32 µg/mL (≈ 83.4 µM).

Q: And the MIC (Acinetobacter baumannii [17])?
A: Its MIC is greater than 64 µg/mL.

Q: And the MIC (Pseudomonas aeruginosa [18])?
A: Its MIC is 16 µg/mL (≈ 41.7 µM).

Q: And the MIC (Pseudomonas aeruginosa [19])?
A: The MIC was 0.5 µg/mL (≈ 1.3 µM).

Q: What about the MIC (Acinetobacter baumannii [20]) of the same compound?
A: The MIC was greater than 64 µg/mL.

Q: What about the MIC (Acinetobacter baumannii [21]) of the same compound?
A: Its MIC is greater than 64 µg/mL.

Q: And the MIC (Acinetobacter baumannii [22])?
A: The MIC was greater than 64 µg/mL.

Q: And the MIC (Acinetobacter baumannii [23])?
A: The MIC was greater than 64 µg/mL.

Q: And the MIC (Klebsiella pneumoniae [24])?
A: Its MIC is greater than 64 µg/mL.

Q: What about the MIC (Escherichia coli [25]) of the same compound?
A: The MIC was 32 µg/mL.

Q: And the MIC (Escherichia coli [26])?
A: The MIC was no more than 0.03 µg/mL.

Q: And the MIC (Acinetobacter baumannii [27])?
A: The MIC was greater than 64 µg/mL.

Q: What about the Activity (Acinetobacter baumannii [28]) of the same compound?
A: Its Activity is 0%.
